The test has as its target T1, ITK (Homo sapiens, UniProt Q08881).
T1 construct: purchased Invitrogen PV3875
T1 sequence (Q08881 1-620): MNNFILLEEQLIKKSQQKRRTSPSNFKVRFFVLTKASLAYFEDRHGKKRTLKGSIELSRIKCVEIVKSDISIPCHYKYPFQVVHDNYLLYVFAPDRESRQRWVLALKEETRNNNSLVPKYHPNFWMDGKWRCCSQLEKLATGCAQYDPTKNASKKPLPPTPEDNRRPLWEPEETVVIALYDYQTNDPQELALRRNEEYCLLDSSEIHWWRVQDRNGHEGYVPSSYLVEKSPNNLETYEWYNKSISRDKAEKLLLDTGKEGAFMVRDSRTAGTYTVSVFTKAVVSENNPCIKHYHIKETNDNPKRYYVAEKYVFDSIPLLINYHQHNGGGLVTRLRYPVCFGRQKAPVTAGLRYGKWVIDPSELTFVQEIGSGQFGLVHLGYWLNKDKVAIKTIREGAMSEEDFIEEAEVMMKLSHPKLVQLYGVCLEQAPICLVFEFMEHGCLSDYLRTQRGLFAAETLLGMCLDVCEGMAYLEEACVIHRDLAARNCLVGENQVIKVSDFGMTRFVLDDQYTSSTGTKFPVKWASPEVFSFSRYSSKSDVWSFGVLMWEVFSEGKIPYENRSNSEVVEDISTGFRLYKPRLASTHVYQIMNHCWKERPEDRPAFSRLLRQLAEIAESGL
In words: ITK enzyme assay (Caliper or LCMS peptide phosphorylation). The format is biochemical. To be noted: purified ITK (Invitrogen PV3875), 20 μM ATP, Ki by Morrison's quadratic equation. An outline of the steps:
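Ki values come from Morrison quadratic fits of activity versus inhibitor concentration, adjusted for ATP-competitive inhibition against ATP/Km,app. Substrate and phosphopeptide from purified ITK reactions were resolved either microfluidically (Caliper, EDTA stop) or by LC-MS MRM (TCA stop).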
Regarding `CC(c1nccs1)n1cc(NC(=O)c2n[nH]c3c2CCC(C)(C)C3)cn1` (single isomer, unassigned) [Example 92b, 6,6-dimethyl-N-(1-(1-(thiazol-2-yl)ethyl)-1H-pyrazol-4-yl)-4,5,6,7-tetrahydro-1H-indazole-3-carboxamide], affinity was put at a Ki of 10 nM. Under `CC12Cc3[nH]nc(C(=O)Nc4cnn(C(CS(C)(=O)=O)c5cccnc5)c4)c3CC1C2` (single isomer, unassigned) [Example 93a, 5a-methyl-N-(1-(2-(methylsulfonyl)-1-(pyridin-3-yl)ethyl)-1H-pyrazol-4-yl)-1,4,4a,5,5a,6-hexahydrocyclopropa[f]indazole-3-carboxamide] stands less than 0.1 nM; under `CC12Cc3[nH]nc(C(=O)Nc4cnn(C(CS(C)(=O)=O)c5cccnc5)c4)c3CC1C2` (single isomer, unassigned) [Example 93b, 5a-methyl-N-(1-(2-(methylsulfonyl)-1-(pyridin-3-yl)ethyl)-1H-pyrazol-4-yl)-1,4,4a,5,5a,6-hexahydrocyclopropa[f]indazole-3-carboxamide], 1 nM. Under `CC1(C)Cc2[nH]nc(C(=O)Nc3cnn(C(c4ccccc4)C4CCS(=O)(=O)CC4)c3)c2C1` (single isomer, unassigned) [Example 94a, N-(1-((1,1-dioxidotetrahydro-2H-thiopyran-4-yl)(phenyl)methyl)-1H-pyrazol-4-yl)-5,5-dimethyl-1,4,5,6-tetrahydrocyclopenta[c]pyrazole-3-carboxamide] stands 0.3 nM. The result for `CC1(C)Cc2[nH]nc(C(=O)Nc3cnn(C(c4ccccc4)C4CCS(=O)(=O)CC4)c3)c2C1` (single isomer, unassigned) [Example 94b, N-(1-((1,1-dioxidotetrahydro-2H-thiopyran-4-yl)(phenyl)methyl)-1H-pyrazol-4-yl)-5,5-dimethyl-1,4,5,6-tetrahydrocyclopenta[c]pyrazole-3-carboxamide] reads 13 nM; that for `CC1(C)Cc2[nH]nc(C(=O)Nc3cnn(Cc4ccccc4)c3)c2CC1CO` (single isomer, unassigned) [Example 95a, N-(1-benzyl-1H-pyrazol-4-yl)-5-(hydroxymethyl)-6,6-dimethyl-4,5,6,7-tetrahydro-1H-indazole-3-carboxamide], 5 nM; that for `CC1(C)Cc2[nH]nc(C(=O)Nc3cnn(Cc4ccccc4)c3)c2CC1CO` (single isomer, unassigned) [Example 95b, N-(1-benzyl-1H-pyrazol-4-yl)-5-(hydroxymethyl)-6,6-dimethyl-4,5,6,7-tetrahydro-1H-indazole-3-carboxamide], 320 nM. Take `CN(C)CC(c1ccccc1)n1cc(NC(=O)c2n[nH]c3c2CC(C)(C)C3)cn1` (single isomer, unassigned) [Example 96a, N-(1-(2-(dimethylamino)-1-phenylethyl)-1H-pyrazol-4-yl)-5,5-dimethyl-1,4,5,6-tetrahydrocyclopenta[c]pyrazole-3-carboxamide]: affinity was put at a Ki of 57 nM.

The compound `CN(C)CC(c1ccccc1)n1cc(NC(=O)c2n[nH]c3c2CC(C)(C)C3)cn1` (single isomer, unassigned) [Example 96b, N-(1-(2-(dimethylamino)-1-phenylethyl)-1H-pyrazol-4-yl)-5,5-dimethyl-1,4,5,6-tetrahydrocyclopenta[c]pyrazole-3-carboxamide] yielded a Ki of 2 nM.

With `CC1(C)Cc2[nH]nc(C(=O)Nc3cnn(C(CS(C)(=O)=O)c4cccnc4)c3)c2C1` (single isomer, unassigned) [Example 97a, 5,5-dimethyl-N-(1-(2-(methylsulfonyl)-1-(pyridin-3-yl)ethyl)-1H-pyrazol-4-yl)-1,4,5,6-tetrahydrocyclopenta[c]pyrazole-3-carboxamide], the inhibition constant (Ki) came to 2 nM.

As to `CC1(C)Cc2[nH]nc(C(=O)Nc3cnn(C(CS(C)(=O)=O)c4cccnc4)c3)c2C1` (single isomer, unassigned) [Example 97b, 5,5-dimethyl-N-(1-(2-(methylsulfonyl)-1-(pyridin-3-yl)ethyl)-1H-pyrazol-4-yl)-1,4,5,6-tetrahydrocyclopenta[c]pyrazole-3-carboxamide], affinity was put at a Ki of 6 nM.

Compound `CC(c1cncs1)n1cc(NC(=O)c2n[nH]c3c2CCC(C)(C)C3)cn1` (single isomer, unassigned) [Example 98a, 6,6-dimethyl-N-(1-(1-(thiazol-5-yl)ethyl)-1H-pyrazol-4-yl)-4,5,6,7-tetrahydro-1H-indazole-3-carboxamide] displayed an inhibition constant Ki of 8 nM. In turn, `CC(c1cncs1)n1cc(NC(=O)c2n[nH]c3c2CCC(C)(C)C3)cn1` (single isomer, unassigned) [Example 98b, 6,6-dimethyl-N-(1-(1-(thiazol-5-yl)ethyl)-1H-pyrazol-4-yl)-4,5,6,7-tetrahydro-1H-indazole-3-carboxamide] came in with a Ki of 2 nM.

`CCC(c1cnn(CC)c1)n1cc(NC(=O)c2n[nH]c3c2CCC(C)(C)C3)cn1` (single isomer, unassigned) [Example 99a, N-(1-(1-(1-ethyl-1H-pyrazol-4-yl)propyl)-1H-pyrazol-4-yl)-6,6-dimethyl-4,5,6,7-tetrahydro-1H-indazole-3-carboxamide] displayed a Ki of 4 nM.

`CCC(c1cnn(CC)c1)n1cc(NC(=O)c2n[nH]c3c2CCC(C)(C)C3)cn1` (single isomer, unassigned) [Example 99b, N-(1-(1-(1-ethyl-1H-pyrazol-4-yl)propyl)-1H-pyrazol-4-yl)-6,6-dimethyl-4,5,6,7-tetrahydro-1H-indazole-3-carboxamide] returned a Ki of 4 nM. Compound `CCn1cc(C(C)n2cc(NC(=O)c3n[nH]c4c3CCC(C)(C)C4)cn2)cn1` (single isomer, unassigned) [Example 100a, N-(1-(1-(1-ethyl-1H-pyrazol-4-yl)ethyl)-1H-pyrazol-4-yl)-6,6-dimethyl-4,5,6,7-tetrahydro-1H-indazole-3-carboxamide] displayed a Ki of 17 nM. For the compound `CCn1cc(C(C)n2cc(NC(=O)c3n[nH]c4c3CCC(C)(C)C4)cn2)cn1` (single isomer, unassigned) [Example 100b, N-(1-(1-(1-ethyl-1H-pyrazol-4-yl)ethyl)-1H-pyrazol-4-yl)-6,6-dimethyl-4,5,6,7-tetrahydro-1H-indazole-3-carboxamide], the affinity corresponds to a Ki of 7 nM. Compound `Cc1nnc(C(C)n2cc(NC(=O)c3n[nH]c4c3CCC(C)(C)C4)cn2)o1` (single isomer, unassigned) [Example 101a, 6,6-dimethyl-N-(1-(1-(5-methyl-1,3,4-oxadiazol-2-yl)ethyl)-1H-pyrazol-4-yl)-4,5,6,7-tetrahydro-1H-indazole-3-carboxamide] returned an inhibition constant (Ki) of 41 nM. Under `Cc1nnc(C(C)n2cc(NC(=O)c3n[nH]c4c3CCC(C)(C)C4)cn2)o1` (single isomer, unassigned) [Example 101b, 6,6-dimethyl-N-(1-(1-(5-methyl-1,3,4-oxadiazol-2-yl)ethyl)-1H-pyrazol-4-yl)-4,5,6,7-tetrahydro-1H-indazole-3-carboxamide] stands 12 nM. Under `CC1(C#N)CCc2c(C(=O)Nc3cnn(Cc4ccccc4)c3)n[nH]c2C1` (single isomer, unassigned) [Example 102a, N-(1-benzyl-1H-pyrazol-4-yl)-6-cyano-6-methyl-4,5,6,7-tetrahydro-1H-indazole-3-carboxamide] stands 300 nM. Under `CC1(C#N)CCc2c(C(=O)Nc3cnn(Cc4ccccc4)c3)n[nH]c2C1` (single isomer, unassigned) [Example 102b, N-(1-benzyl-1H-pyrazol-4-yl)-6-cyano-6-methyl-4,5,6,7-tetrahydro-1H-indazole-3-carboxamide] stands 10 nM; under `CC(c1ncco1)n1cc(NC(=O)c2n[nH]c3c2CCC(C)(C)C3)cn1` (single isomer, unassigned) [Example 103a, 6,6-dimethyl-N-(1-(1-(oxazol-2-yl)ethyl)-1H-pyrazol-4-yl)-4,5,6,7-tetrahydro-1H-indazole-3-carboxamide], 20 nM. In turn, `CC(c1ncco1)n1cc(NC(=O)c2n[nH]c3c2CCC(C)(C)C3)cn1` (single isomer, unassigned) [Example 103b, 6,6-dimethyl-N-(1-(1-(oxazol-2-yl)ethyl)-1H-pyrazol-4-yl)-4,5,6,7-tetrahydro-1H-indazole-3-carboxamide] displayed an inhibitory constant (Ki) of 9 nM. The result for `O=C(Nc1cnn(Cc2ccccc2)c1)c1n[nH]c2c1CCC1(CCCC1=O)C2` (single isomer, unassigned) [Example 105a, N-(1-benzyl-1H-pyrazol-4-yl)-2-oxo-1′,4′,5′,7′-tetrahydrospiro[cyclopentane-1,6′-indazole]-3′-carboxamide] reads 3 nM. The result for `O=C(Nc1cnn(Cc2ccccc2)c1)c1n[nH]c2c1CCC1(CCCC1=O)C2` (single isomer, unassigned) [Example 105b, N-(1-benzyl-1H-pyrazol-4-yl)-2-oxo-1′,4′,5′,7′-tetrahydrospiro[cyclopentane-1,6′-indazole]-3′-carboxamide] reads 240 nM.

A word on the Ki: it is a measure of affinity in units of concentration, obtained from inhibition or displacement. The low end stands for a stronger hold on the target, the high end for a looser hold on the target.

Source of the values: US20160326142A1, “PYRAZOLE CARBOXAMIDE COMPOUNDS, COMPOSITIONS AND METHODS OF USE” (Genentech, Inc., priority 2012, published 2016).
